The text below walks through data of patent EP4389117A1, “PROGESTERONE FORMULATION” (Besins Healthcare Distribution FZ-LLC, priority 2022, dated 2024).

Read-outs that look alike come from different tables or passages of the source.

Data set [1] in a line: Particle size distribution (PSD) measurement by laser light diffractometry, Malvern Mastersizer 2000. Type of data set: physicochemical. The following applies: starting powder before wet-medium-milling. The protocol:
In this document, any particle size characteristic of the wet-media-milled progesterone particles is determined using laser light diffractometry and is based on a volume weighted particle size distribution, unless specifically indicated otherwise. […] As will be understood by those skilled in the art, the term "Dv50" as used herein refers to the point in the size distribution, up to and including which, 50% of the total volume of material in the sample is 'contained'. […] Particle size distribution ('PSD') characteristics are determined using a Malvern® Mastersizer 2000 apparatus equipped with a Hydro 2000 SM wet sample dispersion unit, operated with the settings summarized in table 1. Table 1 - PSD measurement settings [table]

The conditions of data set [2]: single 200 mg oral dose, cited from earlier work.

Regarding `CC(=O)[C@H]1CC[C@H]2[C@@H]3CCC4=CC(=O)CC[C@]4(C)[C@H]3CC[C@]12C` [progesterone, pregn-4-ene-3,20-dione], in data set [1], the Dv10 is 4.7. The Dv50 in data set [1] came out at 38.4. Further, the Dv90 in data set [1] was 74.6. The “peak levels of progesterone compared to plain milled progesterone” value in data set [2] (as a consequence of micronization) is 1.4 fold; in data set [2] (as a consequence of the suspension in oil), 1.2 fold; in data set [2] (combination of micronization and the suspension in oil), 3.2 fold.
